From ChEMBL document CHEMBL4261541, “Synthesis and evaluation of oxindoles as promising inhibitors of the immunosuppressive enzyme indoleamine 2,3-dioxygenase 1” (Medchemcomm, 2017) come the findings set out here.

Activity calls are given as the source filed them. The rule behind the calls is not given here.

In series [1] the target is Tryptophan 2,3-dioxygenase (Homo sapiens, UniProt P48775). The series is described as follows: Inhibition of recombinant human TDO assessed as reduction in conversion of L-tryptophan to kynurenine by methylene blue dye based spectrometric method.
The species named for a further series is Homo sapiens. Briefly: Selectivity ratio of IC50 for human TDO to IC50 for human IDO1.
Series [2] deals with T1, Indoleamine 2,3-dioxygenase 1 (Homo sapiens, UniProt P14902). The series is described as follows: Inhibition of recombinant human IDO1 assessed as reduction in conversion of L-tryptophan to kynurenine by methylene blue dye based spectrometric method.
Target sequence in this assay (P14902 whole entry): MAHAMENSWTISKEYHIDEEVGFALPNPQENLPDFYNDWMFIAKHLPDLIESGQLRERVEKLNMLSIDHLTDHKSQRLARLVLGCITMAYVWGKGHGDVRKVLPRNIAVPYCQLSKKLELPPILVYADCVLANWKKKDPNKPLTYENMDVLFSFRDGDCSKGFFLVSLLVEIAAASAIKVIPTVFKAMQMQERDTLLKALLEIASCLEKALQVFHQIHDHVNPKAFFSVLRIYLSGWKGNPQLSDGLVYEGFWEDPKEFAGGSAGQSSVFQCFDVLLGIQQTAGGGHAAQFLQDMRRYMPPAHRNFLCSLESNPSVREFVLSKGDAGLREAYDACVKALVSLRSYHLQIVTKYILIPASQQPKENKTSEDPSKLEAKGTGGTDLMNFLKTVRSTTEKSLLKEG
The target in series [3] is T1, Indoleamine 2,3-dioxygenase 1. The series is described as follows: Uncompetitive inhibition of recombinant human IDO1 assessed as reduction in conversion of L-tryptophan to N-formylkynurenine at 200 to 1500 nM by methylene blue dye based spectrometric method.
Target sequence in this assay (P14902 whole entry, looked up): as the sequence (P14902 whole entry) above
For series [4] the target is unchanged. Briefly: Binding affinity to human ferric-IDO1 assessed as blue shift in soret peak at 50 uM by UV-Visible spectrophotometric method.
Target sequence in this assay (P14902 whole entry, looked up): as the sequence (P14902 whole entry) above
For series [5], the system named is MDA-MB-231. Briefly: Cytotoxicity against human MDA-MB-231 cells assessed as reduction in cell viability at 2 times IDO1 inhibitory IC50 after 48 hrs by MTT assay. The format is functional, cell-based. On the technique in general: Formazan colour is commonly taken as a measure of viable cells.
In another series the test system is HeLa. The series is described as follows: Cytotoxicity against human HeLa cells assessed as reduction in cell viability at 2 times IDO1 inhibitory IC50 after 48 hrs by MTT assay. The format is functional, cell-based.
Series [6] has as its target T1, Indoleamine 2,3-dioxygenase 1. The series is described as follows: Competitive inhibition of recombinant human IDO1 assessed as reduction in conversion of L-tryptophan to N-formylkynurenine at 200 to 1500 nM by methylene blue dye based spectrometric method.
Target sequence in this assay (P14902 whole entry, looked up): as the sequence (P14902 whole entry) above
The subject of another series is A549. Briefly: Cytotoxicity against human A549 cells assessed as reduction in cell viability at 2 times IDO1 inhibitory IC50 after 48 hrs by MTT assay. The format is functional, cell-based.
A further series concerns J774.A1. Briefly: Cytotoxicity against mouse J774A.1 cells assessed as reduction in cell viability at 2 times IDO1 inhibitory IC50 after 48 hrs by MTT assay. The format is cell-based. The settings on record: j774.a1, 48 h.
Series [7] concerns the target T1, Indoleamine 2,3-dioxygenase 1. The series is described as follows: Inhibition of IFNgamma-stimulated IDO1 in human MDA-MB-231 cells preincubated for 4 hrs followed by tryptophan addition measured after 5 hrs by methylene blue dye based spectrophotometric method. The format is cell-based.
Target sequence in this assay (P14902 whole entry): as above
Series [8] relates to MDA-MB-231. The series is described as follows: Cytotoxicity against human MDA-MB-231 cells assessed as induction of morphological changes at 2 times IDO1 inhibitory IC50 after 48 hrs by cytell imaging analysis. The format is functional, cell-based.
For series [9], the target named is T1, Indoleamine 2,3-dioxygenase 1. Briefly: Binding affinity to human ferrous-IDO1 assessed as blue shift in soret peak at 50 uM by UV-Visible spectrophotometric method.
Target sequence in this assay (P14902 whole entry, looked up): as the sequence (P14902 whole entry) above

A word on the IC50: it is the midpoint of a concentration-inhibition curve. Usually EC50 stands for the concentration that produces a half-maximal response. A high value points to weaker potency.

Chain of Tryptophan 2,3-dioxygenase (P48775 whole entry): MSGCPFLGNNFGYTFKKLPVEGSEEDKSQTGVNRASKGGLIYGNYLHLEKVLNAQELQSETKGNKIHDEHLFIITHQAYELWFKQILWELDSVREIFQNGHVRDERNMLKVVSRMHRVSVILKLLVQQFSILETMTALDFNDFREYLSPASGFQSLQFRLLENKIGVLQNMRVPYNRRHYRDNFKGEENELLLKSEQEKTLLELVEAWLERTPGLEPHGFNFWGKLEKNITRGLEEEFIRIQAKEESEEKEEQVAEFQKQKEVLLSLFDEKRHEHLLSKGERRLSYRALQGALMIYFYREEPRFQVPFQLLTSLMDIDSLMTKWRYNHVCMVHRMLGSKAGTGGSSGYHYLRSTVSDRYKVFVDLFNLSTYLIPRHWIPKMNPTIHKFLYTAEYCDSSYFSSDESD

Regarding `N[C@@H](CC1C(=O)Nc2ccccc21)C(=O)O` (stereo partly specified), the IC50 in series [1] turned out to be 60200 nM; in series [2], 3390 nM. The Ratio IC50 in the series filed under Homo sapiens amounted to 18.
Regarding `CCOC(=O)C(C(=O)OCC)=C1C(=O)Nc2ccccc21`, the IC50 turned out to be 71000 nM in series [1] and 930 nM in series [2]. Besides, the Ratio IC50 in the series filed under Homo sapiens was found to be 76.
On to `CC(=O)CC(=O)CC1(O)C(=O)Nc2ccc(Cl)cc21` (stereo unspecified), for which the half-maximal inhibitory concentration (IC50) in [2] was 890 nM. Moreover, in [3], the inhibition result was “Active”.
On to `CC(=O)/C=C1\C(=O)Nc2ccccc21`, for which the IC50 in series [2] is 1690 nM.
As to `O=C1Nc2ccccc2/C1=N/Nc1cccc(Cl)c1`, in the series filed under Homo sapiens, the Ratio IC50 is 31.
For the compound `O=C1Nc2ccccc2/C1=N/Nc1cccc([N+](=O)[O-])c1`, the IC50 in series [2] stood at 3740 nM.
Same read-out and setting: for `CC(C)(C)OC(=O)N[C@@H](CC1C(=O)Nc2ccccc21)C(=O)O` (stereo partly specified) the value was 1950 nM.
On to `Cc1ccc(S(=O)(=O)N/N=C2\C(=O)Nc3ccccc32)cc1`, for which the IC50 worked out at 52900 nM in series [1] and 1780 nM in [2]. Moreover, the Ratio IC50 in the series filed under Homo sapiens stood at 30.
For the compound `N[C@@H](CC1C(=O)Nc2ccccc21)C(=O)OCc1ccccc1` (stereo partly specified), the concentration for half-maximal inhibition (IC50) in series [2] came to 13600 nM.
In the case of `O=C(N[C@@H](CC1C(=O)Nc2ccccc21)C(=O)O)OCc1ccccc1` (stereo partly specified), the outcome in series [4] was Active. The outcome in the series on MDA-MB-231 [5], in the series on HeLa, with A549 and with MDA-MB-231 [8] was inactive. In addition, the figures for the IC50 in [1] and in series [2] were 27200 nM and 1280 nM, respectively. Further, the inhibition result in series [6] and in [9] was “Active” throughout. Further, in the series with J774.A1, the Activity result is “Non-Toxic”. The Ratio IC50 in the series listed under Homo sapiens was 21. This compound also returned a concentration giving a half-maximal response (EC50) in series [7] of 1260 nM.
For the compound `O=C1Nc2ccccc2/C1=N\c1ccc(Cl)cc1`, the half-maximal inhibitory concentration (IC50) in series [2] amounted to 2560 nM.
Consider `O=C1CCCC(=O)C1C1(O)C(=O)Nc2ccccc21` (stereo unspecified), for which the IC50 in [2] amounted to 4730 nM.
On to `O=C(N[C@@H](CC1C(=O)Nc2ccccc21)C(=O)O)c1ccccc1` (mixture of isomers), for which, in [2], the 50% inhibitory concentration (IC50) was 1580 nM.
Take `CC(=O)CC(=O)/C=C1\C(=O)Nc2ccc(Cl)cc21`: the result in series [4] was Active. Also, the outcome with MDA-MB-231 [5], in the series with HeLa, in the series with A549 and with MDA-MB-231 [8] was inactive. Further, the 50% inhibitory concentration (IC50) in series [1] was 39900 nM; in series [2], 190 nM. The inhibition result in [6] and in series [9] was “Active” in each case. Further, in the series on J774.A1, the Activity entry was “Non-Toxic”. Also, the Ratio IC50 in the series filed under Homo sapiens came to 210. In addition, the midpoint of the response in [7], the EC50, lay at 330 nM.
Regarding `Cn1cc(C[C@H](N)C(=O)O)c2ccccc21`, the result with MDA-MB-231 [5] and with MDA-MB-231 [8] was inactive.
For the compound `O=C(NCCC1C(=O)Nc2ccccc21)OCc1ccccc1` (stereo unspecified), the half-maximal inhibitory concentration (IC50) worked out at 58300 nM in series [1] and 2310 nM in series [2]. Besides, the Ratio IC50 in the series listed under Homo sapiens was 25.
As for `O=C(N[C@@H](CC1C(=O)Nc2ccccc21)C(=O)OCc1ccccc1)OCc1ccccc1` (stereo partly specified), the IC50 in series [2] worked out at 2250 nM.
Consider `O=C1N=c2ccccc2=C1NNc1cccc(Cl)c1`, for which the half-inhibitory concentration (IC50) in [1] was 46800 nM; in series [2], 1510 nM.
On to `CC(=O)N[C@@H](CC1C(=O)Nc2ccccc21)C(=O)O` (mixture of isomers), for which the result in [4] was Active. Moreover, the outcome in the series on MDA-MB-231 [5], in the series with HeLa, with A549 and with MDA-MB-231 [8] was inactive. In addition, the figures for the 50% inhibitory concentration (IC50) in series [1] and in [2] were 83500 nM and 620 nM, respectively. Further, the inhibition entry in [6] and in series [9] was “Active” in each case. Also, the Activity result in the series with J774.A1 was “Non-Toxic”. Further, the Ratio IC50 in the series listed under Homo sapiens was found to be 135. The EC50 in series [7] is 480 nM.
In the case of `NCCC1C(=O)Nc2ccccc21` (stereo unspecified), in series [2], the half-inhibitory concentration (IC50) was found to be 3970 nM.
Take `CC(=O)CC(=O)CC1(O)C(=O)Nc2ccccc21` (stereo unspecified): the values for the Activity (in series [4]; in the series on J774.A1) were 9 nm and “Non-Toxic”, respectively. The result in the series with MDA-MB-231 [5], with HeLa, in the series on A549 and with MDA-MB-231 [8] was inactive. For the same compound, the IC50 in series [1] amounted to 56100 nM; in [2] it was 450 nM. The inhibition result in series [6] and in series [9] was “Active” each time. For the same compound, the Ratio IC50 in the series filed under Homo sapiens stood at 124. Besides, the EC50 in series [7] worked out at 490 nM.
On to `O=C1Nc2ccccc2/C1=N/c1ccccc1Br`, for which the IC50 came to 46200 nM in [1] and 1240 nM in [2]. The inhibition entry in series [6] is “Active”. In addition, the Ratio IC50 in the series filed under Homo sapiens turned out to be 37.
Regarding `O=C1Nc2ccccc2C1=NNc1ccccc1`, the IC50 in series [2] was found to be 1950 nM.
Take `NC(=O)[C@@H](N)CC1C(=O)Nc2ccccc21` (stereo partly specified): the 50% inhibitory concentration (IC50) in [2] is 8330 nM.
On to `CC(=O)CC1(O)C(=O)Nc2ccc(Cl)cc21` (stereo unspecified), for which the half-maximal inhibitory concentration (IC50) in series [2] was 1970 nM.
As for `O=C1Nc2ccccc2/C1=N/Nc1ccccc1C(F)(F)F`, the values for the IC50 in series [1] and in series [2] were 38300 nM and 1580 nM, respectively. Further, in the series filed under Homo sapiens, the Ratio IC50 was 24.
For the compound `CC(=O)/C=C1\C(=O)Nc2ccc(Cl)cc21`, the outcome in the series on MDA-MB-231 [5], with HeLa, in the series on A549 and in the series on MDA-MB-231 [8] was inactive. The figures for the concentration for half-maximal inhibition (IC50) in [1] and in series [2] were 54700 nM and 360 nM, respectively. Further, in series [6], the inhibition result is “Active”. For the same compound, in the series with J774.A1, the Activity entry was “Non-Toxic”. Moreover, the Ratio IC50 in the series filed under Homo sapiens is 152. This compound also yielded an EC50 in [7] of 460 nM.
Take `O=C1Nc2ccccc2/C1=N/Nc1ccc(Cl)cc1`: the outcome in the series with MDA-MB-231 [5], with HeLa, in the series on A549 and in the series on MDA-MB-231 [8] was inactive. In addition, the IC50 in [1] turned out to be 53400 nM; in series [2] it was 630 nM. In addition, the Activity entry in the series on J774.A1 is “Non-Toxic”. In addition, the Ratio IC50 in the series listed under Homo sapiens is 85. Moreover, the midpoint of the response in series [7], the EC50, lay at 420 nM. Moreover, in [3], the inhibition result is “Active”.
